“And” between values parts separate entries of the source, which are not always exact repeats. Equal entries are not always repeated.
Legend:
[1] = Compaction test: tablet pressed in die, visual observation on extraction; type: physicochemical; conditions: 0.71 inch die, 5000 psi, no dwell time, die dusted with MICROPRO 400; listed as control sample
[2] = Storage stability at 50° C., wt % active bromine by iodometric titration; type: physicochemical
Source text: Three more samples of the blend (5 g each) were compacted in the same manner, and each time a single tablet was extracted from the die after the pressure had been released. The tablets were manually broken into two equally-sized pieces. One half of each tablet was crushed into a powder with a mortar and pestle, and the powder was titrated using the standard, well-known, iodometric method with a starch indicator to determine the wt % of active bromine. The other half of each tablet was placed in a sealed glass vial and placed in an oven at 50° C. After 30 days, the samples were removed from the oven, ground up, and titrated to determine its wt % of active bromine using the same analytical method.

[3] = Granulation through Chilsonator breaker and screens; type: physicochemical; conditions: Chilsonator breaker, screens U.S. mesh 12 to 18
Protocol: The mixing time was 60 minutes in each case. […] The mixing time was 240 minutes. Each blend was passed through a Chilsonator® breaker (The Fitzpatrick Company, Elmhurst, Ill.) and a set of screens to produce compacted granules of U.S. mesh size 12 to 18. […] Instead, the unblended material exiting the Chilsonator® was mostly loose powder.

[4] = Large tablet compaction, 2.5-inch punch and die, Carver Press; conditions: 63.8 g, 2.5-inch die, 5000 psi, no dwell time, silicone oil lubricant
Protocol: Tableting operations were carried out using three different samples of 1,3-dibromo-5,5-dimethylhydantoin. In these operations, a 2.5-inch diameter stainless punch and die were used to compact samples weighing 63.8 grams each. […] A thin film of silicone oil lubricant was applied to the internal faces of the punch and die to promote good mold release. A Carver Press was used to apply a pressure of 5000 psi to the material. There was no dwell time, and the pressure was immediately released on obtaining 5000 psi. On extraction from the die, a visual observation of the compacted form was made.

[5] = Naproxen caplet compaction at 25,000 psi; type: physicochemical; conditions: imprinted stainless steel punch and die, 0.12-inch cross-sectional area
Protocol: A blend of commercially available virgin naproxen powder (Albemarle Corporation, Richmond, Va.) and micronized polyethylene wax (MPP-611; Micro Powders, Inc., Tarrytown, N.Y.) was formed. The blend contained 10 wt % of the micronized wax. Two 250 mg samples and three 318 mg samples of this blend were compacted in an imprinted stainless steel punch and die set of 0.12-inch cross-sectional area. Upon attaining a pressure of 25,000 psi, the pressure was released. […] The caplets were shiny and free of edge-burrs and surface defects. The imprinted lettering from the top punch was clearly impressed into the caplets.
Instead, as the punches were separated, approximately half of the naproxen had stuck to the top punch and the remainder had stuck to the bottom punch.

[6] = Crush strength test (Sintech 1/S compression apparatus); type: physicochemical; conditions: Table 8, no binder; for Crush Strength (force at breaking point), single tablet / Crush Strength per inch thickness, single tablet: 5 g, 5000 psi, aged 6 days at room temperature
Source text: In each test, tablets made from 5 g of blended material were used. […] The apparatus includes a horizontal circular-shaped load cell interfaced with a computer, a digital micrometer also interfaced with the computer, and a vertical screw-driven piston that is disposed above the load cell and adapted to apply a downward force perpendicular to the load cell. The procedure for measuring crush strength involves measuring the thickness of the tablet with the micrometer to provide a digitized input to the computer. Next the tablet is placed on its edge on the load cell with the piston in contact with the upper edge of the tablet. Then the apparatus is activated whereby the piston commences applying a progressively increasing downward diametral force to the tablet. At the same time, the load cell continuously measures the downward force being applied to the tablet, and the input of such measurements is transmitted to the computer. When the force being applied reaches the point where the amount of force suddenly decreases to 10% of the immediately preceding force, the tablet has reached the breaking point, and the application of the force is immediately terminated by the software program. From the inputs to the computer, two values are provided, namely the pounds of force at the breaking point of the tablet, and the pounds of force per inch thickness of the tablet at the breaking point. Thus the greater the force applied, the greater the crush strength. […] When the compacted article is in a form other than a cylindrical tablet (e.g., a granule, caplet, briquette, or puck), the article being tested is to be positioned on the load cell and under the screw-driven piston with the longest axis of the article in the vertical position. In addition, the micrometer is used to measure the thickest portion of the article when the article is positioned on the load cell and under the screw-driven piston with the longest axis of the article in the vertical position.

In the case of `CC1(C)C(=O)N(Br)C(=O)N1Br` [DBDMH - without wax binder], the “Observations (tablet on extraction from die)” value [1] is reported as “not possible to extract a single tablet from the die”, the “Wt % Active Bromine, Initial” value ([2]; half tablet crushed, iodometric titration) is reported as 55.3 Wt % and the “Wt % Active Bromine, After 30 days” value ([2]; half tablet in sealed glass vial, oven at 50° C., 30 days) is reported as 55.2 Wt %. The Compaction into granules [3] was “did not compact and form granules” and the “Observations (large tablet on extraction from die)” value ([4]; listed as Commercial sample without binder) was “Tablet delaminates”.
For `COc1ccc2cc([C@H](C)C(=O)O)ccc2c1` [naproxen], the Caplet formation [5] was “No unbroken caplet of naproxen could be produced”.
For `CC1(C)C(=O)N(Br)C(=O)N1Br` [Set B], the “Crush Strength (force at breaking point), single tablet” value ([6]; listed as B) was 10.7 lb. and 12.8 lb. and 9.8 lb, the “Crush Strength per inch thickness, single tablet” value ([6]; listed as B) was 30.4 lb./in. and 36.4 lb./in. and 27.8 lb./in and the “Crush Strength (force at breaking point), average of set” value ([6]; listed as B) was 11.1 lb. The “Crush Strength per inch thickness, average of set” value ([6]; listed as B) was 31.5 lb./in.
For `CC1(C)C(=O)N(Br)C(=O)N1Br`, the “Observations (large tablet on extraction from die)” value [4] was “Intact tablet exhibiting”.
For `CC1(C)C(=O)N(Br)C(=O)N1Br` [Set A], the “Crush Strength (force at breaking point), single tablet” value ([6]; listed as A) was 20.9 lb. and 25.5 lb. and 19.2 lb. and 22.8 lb. and 23.7 lb, the “Crush Strength per inch thickness, single tablet” value ([6]; listed as A) was 57.3 lb./in. and 69.5 lb./in. and 52.5 lb./in. and 62.1 lb./in. and 65.0 lb./in and the “Crush Strength (force at breaking point), average of set” value ([6]; listed as A) was 22.4 lb. For the same compound, the “Crush Strength per inch thickness, average of set” value ([6]; listed as A) was 61.3 lb./in.
